From patent US20070049592A1, “Bis-aryl urea compounds and methods of use” (priority 2005, published 2007)

Tests used:
[1] = system: Human Umbilical Vein Endothelial cells; experiment: HUVEC proliferation assay (VEGF); assay type: cell-based; settings: VEGF-stimulated HUVEC proliferation
Method: Human Umbilical Vein Endothelial cells are purchased from Clonetics, Inc., as cryopreserved cells harvested from a pool of donors. These cells, at passage 1, are thawed and expanded in EBM-2 complete medium, until passage 2 or 3. The cells are trypsinized, washed in DMEM+10% FBS+antibiotics, and spun at 1000 rpm for 10 min. Prior to centrifugation of the cells, a small amount is collected for a cell count. After centrifugation, the medium is discarded, and the cells are resuspended in the appropriate volume of DMEM+10% FBS+antibiotics to achieve a concentration of 3×10^5 cells/mL. Another cell count is performed to confirm the cell concentration. The cells are diluted to 3×10^4 cells/mL in DMEM+10% FBS+antibiotics, and 100 μL of cells are added to a 96-well plate. The cells are incubated at 37° C. for 22 h.
Prior to the completion of the incubation period, compound dilutions are prepared. Five-point, five-fold serial dilutions are prepared in DMSO, at concentrations 400-fold greater than the final concentrations desired. 2.5 μL of each compound dilution are diluted further in a total of 1 mL DMEM+10% FBS+antibiotics (400× dilution). Medium containing 0.25% DMSO is also prepared for the 0 μM compound sample. At the 22 h timepoint, the medium is removed from the cells, and 100 μL of each compound dilution is added. The cells are incubated at 37° C. for 2-3 h.
During the compound pre-incubation period, the growth factors are diluted to the appropriate concentrations. Solutions of DMEM+10% FBS+antibiotics, containing either VEGF or bFGF at the following concentrations: 50, 10, 2, 0.4, 0.08, and 0 ng/mL are prepared. For the compound-treated cells, solutions of VEGF at 550 ng/mL or bFGF at 220 ng/mL for 50 ng/mL or 20 ng/mL final concentrations, respectively, are prepared since 10 μL of each will be added to the cells (110 μL final volume). At the appropriate time after adding the compounds, the growth factors are added. VEGF is added to one set of plates, while bFGF is added to another set of plates. For the growth factor control curves, the media on wells B4-G6 of plates 1 and 2 are replaced with media containing VEGF or bFGF at the varying concentrations (50-0 ng/mL). The cells are incubated at 37° C. for an additional 72 h.
At the completion of the 72 h incubation period, the medium is removed, and the cells are washed twice with PBS. After the second wash with PBS, the plates are tapped gently to remove excess PBS, and the cells are placed at −70° C. for at least 30 min. The cells are thawed and analyzed using the CyQuant fluorescent dye (Molecular Probes C-7026), following the manufacturer's recommendations. The plates are read on a Victor/Wallac 1420 workstation at 485 nm/530 nm (excitation/emission). Raw data is collected and analyzed using a 4-parameter fit equation in XLFit. IC50 values are then determined.

[2] = system: production of TNF by monocytes activated with bacterial lipopolysaccharide (LPS); experiment: Lipopolysaccharide-activated monocyte TNF production assay; assay type: cell-based; settings: Homo sapiens, as a determination of p38 activity, read-out: IC50 values in the monocyte assay (LPS induced TNF release)
Method: Test compounds were evaluated in vitro for the ability to inhibit the production of TNF by monocytes activated with bacterial lipopolysaccharide (LPS). Fresh residual source leukocytes (a byproduct of plateletpheresis) were obtained from a local blood bank, and peripheral blood mononuclear cells (PBMCs) were isolated by density gradient centrifugation on Ficol-Paque Plus (Pharmacia). PBMCs were suspended at 2×10^6/ml in DMEM supplemented to contain 2% FCS, 10 mM, 0.3 mg/ml […], 100 U/ml penicillin G and […] streptomycin sulfate (complete media). Cells were plated into Falcon flat bottom, 96 well culture plates (200 μl/well) and cultured overnight at 37° C. and 6% CO2. Non-adherent cells were removed by washing with 200 μl/well of fresh medium. Wells containing adherent cells (˜70% monocytes) were replenished with 100 μl of fresh medium.
Test compounds were dissolved in […]. Compound stock solutions were prepared to an initial concentration of […]. Stocks were diluted initially to 20-200 μM in complete media. Nine two-fold serial dilutions of each compound were then prepared in complete medium.
One hundred microliters of each test compound dilution were added to microtiter wells containing adherent monocytes and 100 μl complete medium. Monocytes were cultured with test compounds for 60 min at which time 25 μl of complete medium containing 30 ng/ml lipopolysaccharide from E. coli K532 were added to each well. Cells were cultured an additional 4 hrs. Culture supernatants were then removed and TNF presence in the supernatants was quantified using an ELISA.
Flat bottom, 96 well Corning High Binding ELISA plates were coated overnight (4° C.) with 150 μL/well of 3 μg/ml murine anti-human TNF-α MAb (R&D Systems #MAB210). Wells were then blocked for 1 hr at room temperature with 200 μL/well of CaCl2-free ELISA buffer supplemented to contain 20 mg/ml BSA (standard ELISA buffer: […], 150 mM NaCl, 2 mM CaCl2, 0.15 mM thimerosal, pH 7.4). Plates were washed and replenished with 100 μl of test supernatants (diluted 1:3) or standards. Standards consisted of eleven 1.5-fold serial dilutions from a stock of 1 ng/ml recombinant human TNF (R&D Systems). Plates were incubated at room temperature for 1 hr on orbital shaker (300 rpm), washed and replenished with 100 μl/well of 0.5 μg/ml goat anti-human TNF-α (R&D systems #AB-210-NA) biotinylated at a 4:1 ratio. Plates were incubated for 40 min, washed and replenished with 100 μl/well of alkaline phosphatase-conjugated streptavidin (Jackson ImmunoResearch #016-050-084) at 0.02 μg/ml. Plates were incubated 30 min, washed and replenished with 200 μl/well of 1 mg/ml of p-nitrophenyl phosphate. After 30 min, plates were read at 405 nm on a Vmax plate reader.
Standard curve data were fit to a second order polynomial and unknown TNF-α concentrations determined from their OD by solving this equation for concentration. TNF concentrations were then plotted vs. test compound concentration using a second order polynomial. This equation was then used to calculate the concentration of test compounds causing a 50% reduction in TNF production.

| IC50 [2] [µM] | SMILES | IC50 [1] [µM] |
| --- | --- | --- |
| ≤ 5 | CNc1cc(N(C)C(=O)Nc2cc(C(=O)Nc3cccc(C(F)(F)F)c3)ccc2C)ncn1 [Example 16, ′4-methyl-3-(((methyl(6-(methylamino)-4-pyrimidinyl)amino)carbonyl)amino)-N-(3-(trifluoromethyl)phenyl) benzamide] | < 5 |
| ≤ 5 | CNc1cc(N(C)C(=O)Nc2cc(C(=O)Nc3cccc(C(C)C)c3)ccc2C)ncn1 [Example 17, 4-methyl-N-(3-(1-methylethyl)phenyl)-3-(((methyl(6-(methylamino)-4-pyrimidinyl)amino)carbonyl)amino) benzamide] | < 5 |
| ≤ 5 | CNc1cc(N(C)C(=O)Nc2cc(C(=O)Nc3cc(OC)cc(C(F)(F)F)c3)ccc2C)ncn1 [Example 18, 4-methyl-3-(((methyl(6-(methylamino)-4-pyrimidinyl)amino)carbonyl)amino)-N-(3-(methyloxy)-5-(trifluoromethyl)phenyl) benzamide] | < 5 |
| ≤ 5 | CNc1cc(N(C)C(=O)Nc2cc(C(=O)Nc3cccc(C(F)(F)F)c3C)ccc2C)ncn1 [Example 20, 4-methyl-3-(((methyl(6-(methylamino)-4-pyrimidinyl)amino)carbonyl)amino)-N-(2-methyl-3-(trifluoromethyl)phenyl)benzamide] | < 5 |
| ≤ 5 | CNc1cc(N(C)C(=O)Nc2cc(C(=O)Nc3ccc4ccccc4c3)ccc2C)ncn1 [Example 23, 4-methyl-3-(((methyl(6-(methylamino)-4-pyrimidinyl)amino)carbonyl)amino)-N-(2-naphthalenyl) benzamide] | < 5 |
| ≤ 5 | CNc1cc(N(C)C(=O)Nc2cc(C(=O)Nc3cccc(C(F)(F)F)c3F)ccc2C)ncn1 [Example 24, N-(2-fluoro-3-(trifluoromethyl)phenyl)-4-methyl-3-((methyl(6-(methylamino)-4-pyrimidinyl)amino)carbonylamino)benzamide] | < 5 |
| ≤ 5 | CNc1cc(N(C)C(=O)Nc2cc(C(=O)Nc3ccc(C(C)(C)C)cc3)ccc2C)ncn1 [Example 25] | < 5 |
| ≤ 5 | CNc1ncnc(N(C)C(=O)Nc2cc(C(=O)Nc3ccc4ccccc4c3)ccc2C)n1 [Example 30, 4-methyl-3-(((methyl(4-(methylamino)-1,3,5-triazin-2-yl)amino)carbonyl)amino)-N-(2-naphthalenyl) benzamide] | < 5 |
| – | CNc1cc(N(C)C(=O)Nc2cc(C(=O)Nc3ccc(Cl)cc3)ccc2C)ncn1 [Example 40, N-(4-chlorophenyl)-4-methyl-3-(((methyl(6-(methylamino)-4-pyrimidinyl)amino)carbonyl)amino)benzamide] | < 5 |
| – | CNc1cc(N(C)C(=O)Nc2cc(C(=O)Nc3ccccc3)ccc2C)ncn1 [Example 41, 4-methyl-3-(((methyl(6-(methylamino)-4-pyrimidinyl)amino)carbonyl)amino)-N-phenylbenzamide] | < 5 |
| – | CCCCNC(=O)c1ccc(C)c(NC(=O)N(C)c2cc(NC)ncn2)c1 [Example 42, N-butyl-4-methyl-3-(((methyl(6-(methylamino)-4-pyrimidinyl)amino)carbonyl)amino)benzamide] | < 5 |
| – | CNc1cc(N(C)C(=O)Nc2cc(C(=O)Nc3cc(C4CCCCC4)ccc3OC)ccc2C)ncn1 [Example 43, N-(5-cyclohexyl-2-(methyloxy)phenyl)-4-methyl-3-(((methyl(6-(methylamino)-4-pyrimidinyl)amino)carbonyl)amino)benzamide] | < 5 |
| – | CNc1ncnc(N(C)C(=O)Nc2cc(C(=O)Nc3ccccc3)ccc2C)n1 [Example 44, 4-methyl-3-(((methyl(4-(methylamino)-1,3,5-triazon-2-yl)amino)carbonyl)amino)-N-phenylbenzamide] | < 5 |
| – | CNc1cc(N(C)C(=O)Nc2cc(C(=O)NCc3ccccc3)ccc2C)ncn1 [Example 45, 4-methyl-3-(((methyl(6-(methylamino)-4-pyrimidinyl)amino)carbonyl)amino)-N-(phenylmethyl) benzamide] | < 5 |
| – | COc1ccc(C2CCCCC2)cc1NC(=O)c1ccc(C)c(NC(=O)N(CCCN2CCOCC2)c2ccncn2)c1 [Example 46, N-(5-cyclohexyl-2-(methyloxy)phenyl)-4-methyl-3-((((3-(4-morpholinyl)propyl)(4-pyrimidinyl)amino)carbonyl)amino)benzamide] | < 5 |
| – | CNc1ncnc(N(C)C(=O)Nc2cc(C(=O)Nc3ccc(Cl)cc3)ccc2C)n1 [Example 47, N-(4-chlorophenyl)-4-methyl-3-(((methyl(4-(methylamino)-1,3,5-triazin-2-yl)amino)carbonyl)amino) benzamide] | < 5 |
| – | CCCCNC(=O)c1ccc(C)c(NC(=O)N(C)c2ncnc(NC)n2)c1 [Example 48, N-butyl-4-methyl-3-(((methyl(4-(methylamino)-1,3,5-triazin-2-yl)amino)carbonyl)amino)benzamide] | < 5 |
| – | CNc1ncnc(N(C)C(=O)Nc2cc(C(=O)NCc3ccccc3)ccc2C)n1 [Example 49, 4-methyl-3-(((methyl(4-(methylamino)-1,3,5-triazin-2-yl)amino)carbonyl)amino)-N-(phenylmethyl) benzamide] | < 5 |
| – | CNc1nccc(N(CCCN2CCOCC2)C(=O)Nc2cc(C(=O)Nc3cc(C4CCCCC4)ccc3OC)ccc2C)n1 [Example 50, N-(5-cyclohexyl-2-(methyloxy)phenyl)-4-methyl-3-((((2-(methylamino)-4-pyrimidinyl)(3-(4-morpholinyl)propyl)amino)carbonyl)amino) benzamide] | < 5 |
| – | CNC(=O)c1cc(N(C)C(=O)Nc2cc(C(=O)N3CCCc4ccc(C(F)(F)F)cc43)ccc2C)ccn1 [Example 71, N-methyl-4-(methyl(((2-methyl-5-((7-(trifluoromethyl)-3,4-dihydro-1(2H)-quinolinyl)carbonyl)phenyl)amino)carbonyl)amino)-2-pyridinecarboxamide] | < 5 |
